US11958861B2, “Spirocyclic lactams as JAK2 V617F inhibitors” (Incyte Corporation, priority 2021, dated 2024)
Counter-ions that a name gives are not always drawn.

Columns and labels:
[1] = target: T1, pseudo-kinase domain (JH2, amino-acids 536-812) of human V617F mutant JAK2 (Homo sapiens, UniProt O60674, F794H/V617F/W659A/W777A); experiment: JAK2 LanthaScreen JH2-V617F Binding Assay; conditions: 1 hour at 25° C.
T1 construct: pseudo-kinase domain (JH2, amino-acids 536-812 with 3 surface mutations W659A, W777A, F794H); purchased BPS Bioscience 79498; host or cells: baculovirus expression system
T1 sequence (O60674 536-812 V617F/W659A/W777A/F794H): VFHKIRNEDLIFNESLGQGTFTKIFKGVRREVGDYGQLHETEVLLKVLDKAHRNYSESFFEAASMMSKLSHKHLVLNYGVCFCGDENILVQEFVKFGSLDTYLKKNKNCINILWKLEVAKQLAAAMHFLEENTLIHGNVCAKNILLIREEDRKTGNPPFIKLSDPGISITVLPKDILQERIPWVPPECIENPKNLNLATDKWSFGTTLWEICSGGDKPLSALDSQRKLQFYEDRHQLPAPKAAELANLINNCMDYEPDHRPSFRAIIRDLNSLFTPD
In short: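 Biotinylated His-Avi-tagged JH2 protein was baculovirus-expressed and used at 0.26 nM. It was incubated with compound, 50 nM fluorescent JH2 tracer and 0.25 nM streptavidin-Tb for 1 h at 25 °C in pH 7.5 Tris buffer with MgCl2, BSA, DTT. Non-specific binding was defined with 2 mM ATP. IC50 came from four-parameter fits of TR-FRET signal.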

[2] = target: T2, catalytic domain (JH1, amino acids 826-1132) of human JAK2 (Homo sapiens, UniProt O60674); experiment: JAK2 LanthaScreen JH1 Binding Assay; conditions: 2 hours at 25° C.
T2 construct: catalytic domain (JH1, amino acids 826-1132) of human JAK2; purchased Carna Biosciences 08-445-20N; host or cells: baculovirus expression system
T2 sequence (O60674 826-1132): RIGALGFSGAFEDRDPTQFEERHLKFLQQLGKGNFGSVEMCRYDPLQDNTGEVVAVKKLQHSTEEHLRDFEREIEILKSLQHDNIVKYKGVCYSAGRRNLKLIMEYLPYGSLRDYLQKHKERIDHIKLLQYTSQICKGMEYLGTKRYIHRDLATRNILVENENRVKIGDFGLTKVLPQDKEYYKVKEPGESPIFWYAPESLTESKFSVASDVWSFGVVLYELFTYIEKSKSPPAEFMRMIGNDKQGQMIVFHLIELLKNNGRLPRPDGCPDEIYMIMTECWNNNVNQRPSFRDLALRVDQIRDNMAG
In short: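 FLAG-tagged biotinylated JAK2 JH1 (1.5 nM) incubated with compounds, 50 nM fluorescent tracer and 0.5 nM streptavidin-Tb in Tris pH 7.5 buffer with MgCl2, BSA, DTT, 2 h at 25 °C.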

[3] = target: T3, catalytic domain (JH1, amino acids 808-1132) of human JAK2 (Homo sapiens, UniProt O60674); experiment: JAK2 HTRF Enzyme Activity Assay; assay type: biochemical; conditions: ATP 30 μM, read-out: ENZ 30UMATP
T3 construct: catalytic domain (JH1, amino acids 808-1132) of human JAK2; His (N); purchased BPS Bioscience 40450; host or cells: baculovirus expression system
T3 sequence (O60674 808-1132): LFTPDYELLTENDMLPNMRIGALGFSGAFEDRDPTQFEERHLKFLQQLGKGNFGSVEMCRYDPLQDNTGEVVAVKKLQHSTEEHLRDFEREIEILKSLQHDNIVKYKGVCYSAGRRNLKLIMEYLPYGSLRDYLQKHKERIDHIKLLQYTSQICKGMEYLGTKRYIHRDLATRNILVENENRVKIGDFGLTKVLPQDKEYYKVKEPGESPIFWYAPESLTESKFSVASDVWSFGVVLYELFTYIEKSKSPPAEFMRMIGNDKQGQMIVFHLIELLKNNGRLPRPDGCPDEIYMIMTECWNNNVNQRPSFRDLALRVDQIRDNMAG
In short: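 His-tagged JAK2 JH1 from baculovirus, 0.015 nM, incubated with compound, ATP at 30 μM or 1 mM and 500 nM biotinylated peptide, pH 7.5, 60 min at 25° C. HTRF read-out via Eu-anti-phosphotyrosine and streptavidin-APC after EDTA stop; IC50 from four-parameter dose-response fit.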

[4] = target: T4, pseudo-kinase domain (JH2, amino-acids 536-812) of human Wild Type JAK2 (Homo sapiens, UniProt O60674, F794H/W659A/W777A); experiment: JAK2 LanthaScreen JH2-WT Binding Assay; conditions: 1 hour at 25° C.
T4 construct: pseudo-kinase domain (JH2, amino-acids 536-812 with 3 surface mutations W659A, W777A, F794H); purchased BPS Bioscience 79463; host or cells: baculovirus expression system
T4 sequence (O60674 536-812 W659A/W777A/F794H): as the sequence (O60674 536-812 V617F/W659A/W777A/F794H) above, with F82V counted along it
In short: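 Biotinylated His-Avi-tagged JAK2 JH2 (0.145 nM), baculovirus-expressed, incubated with compounds, 50 nM fluorescent JH2 tracer and 0.25 nM streptavidin-Tb, 1 h at 25° C in pH 7.5 Tris buffer with MgCl2 and DTT. Non-specific binding defined with 2 mM ATP. TR-FRET read; IC50 from four-parameter fit.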

| Compound | IC50 [1] [µM] | IC50 [2] [µM] | IC50 [3] [µM] | IC50 [4] [µM] |
| --- | --- | --- | --- | --- |
| CN1C(=O)C2(CCN(C3(CC#N)CCC3)CC2)c2c1cnc1[nH]c(-c3ccn(C)c3)c(-c3ccc4c(cnn4C)c3)c21 [Example 42, 2-(1-(6-Methyl-1-(1-methyl-1H-indazol-5-yl)-2-(1-methyl-IH-pyrrol-3-yl)-7-oxo-6,7-dihydro-3H-spiro[dipyrrolo[2,3b:3′,2′-d]pyridine-8,4′-piperidin]-1′-yl)cyclobutyl)acetonitrile, trifluoroacetate salt] | ≤ 0.1 | 0.5 to 1.25 | 0.1 to 0.5 | ≤ 0.1 |
| CN1C(=O)C2(CCN(C3(CC#N)CCC3)CC2)c2c1cnc1[nH]c(-c3cnn4c3CCCC4)c(-c3ccc4c(cnn4C)c3)c21 [Example 43, 2-(1-(6-Methyl-1-(1-methyl-1H-indazol-5-yl)-7-oxo-2-(4,5,6,7-tetrahydropyrazolo[1,5-a]pyridin-3-yl)-6,7-dihydro-3H-spiro[dipyrrolo[2,3-b:3′,2′-d]pyridine-8,4′-piperidin]-1′-yl)cyclobutyl)acetonitrile] | ≤ 0.1 | > 2.5 | > 2.5 | ≤ 0.1 |
| COC(C)(C)Cn1cc(-c2[nH]c3ncc4c(c3c2-c2ccc3c(cnn3C)c2)C2(CCN(C3(CC#N)CCC3)CC2)C(=O)N4C)cn1 [Example 44, 2-(1-(2-(1-(2-Methoxy-2-methylpropyl)-1H-pyrazol-4-yl)-6-methyl-1-(1-methyl-1H-indazol-5-yl)-7-oxo-6,7-dihydro-3H-spiro[dipyrrolo[2,3-b:3′,2′-d]pyridine-8,4′-piperidin]-1′-yl)cyclobutyl)acetonitrile, trifluoroacetate salt] | ≤ 0.1 | 0.1 to 0.5 | 0.1 to 0.5 | ≤ 0.1 |
| O=C(O)C(F)(F)F.[2H]C([2H])([2H])n1ccc2cc(-c3c(-c4cnn(CCOC)c4)[nH]c4ncc5c(c34)C3(CCN(C4(CC#N)CCC4)CC3)C(=O)N5C)ccc21 [Example 46, 2-(1-(2-(1-(2-Methoxyethyl)-1H-pyrazol-4-yl)-6-methyl-1-(1-(methyl-d3)-1H-indol-5-yl)-7-oxo-6,7-dihydro-3H-spiro[dipyrrolo[2,3-b:3′,2′-d]pyridine-8,4′-piperidin]-1′-yl)cyclobutyl)acetonitrile, trifluoroacetate salt] | ≤ 0.1 | 0.5 to 1.25 | 0.5 to 1.25 | ≤ 0.1 |
| COc1c(F)cc(-c2c(-c3cnn(CC(C)(C)O)c3)[nH]c3ncc4c(c23)C2(CCN(C3(CC#N)CCC3)CC2)C(=O)N4C)cc1F [Example 47, 2-(1-(1-(3,5-Difluoro-4-methoxyphenyl)-2-(1-(2-hydroxy-2-methylpropyl)-1H-pyrazol-4-yl)-6-methyl-7-oxo-6,7-dihydro-3H-spiro[dipyrrolo[2,3-b:3′,2′-d]pyridine-8,4′-piperidin]-1′-yl)cyclobutyl)acetonitrile, trifluoroacetate salt] | ≤ 0.1 | > 2.5 | > 2.5 | ≤ 0.1 |
| CN1C(=O)C2(CCN(C3(CC#N)CCC3)CC2)c2c1cnc1[nH]c(-c3cnn(CC(C)(C)O)c3)c(-c3cc4cnccc4s3)c21 [Example 48, 2-(1-(2-(1-(2-Hydroxy-2-methylpropyl)-1H-pyrazol-4-yl)-6-methyl-7-oxo-1-(thieno[3,2-c]pyridin-2-yl)-6,7-dihydro-3H-spiro[dipyrrolo[2,3-b:3′,2′-d]pyridine-8,4′-piperidin]-1′-yl)cyclobutyl)acetonitrile, trifluoroacetate salt] | ≤ 0.1 | 0.1 to 0.5 | 0.1 to 0.5 | ≤ 0.1 |
| CN1C(=O)C2(CCN(C3(CC#N)CCC3)CC2)c2c1cnc1[nH]c(-c3cnn(CC(C)(C)O)c3)c(-c3ccc(C4CC4)cc3)c21 [Example 49, 2-(1-(1-(4-Cyclopropylphenyl)-2-(1-(2-hydroxy-2-methylpropyl)-1H-pyrazol-4-yl)-6-methyl-7-oxo-6,7-dihydro-3H-spiro[dipyrrolo[2,3-b:3′,2′-d]pyridine-8,4′-piperidin]-1′-yl)cyclobutyl)acetonitrile, trifluoroacetate salt] | ≤ 0.1 | > 2.5 | > 2.5 | ≤ 0.1 |
| CN1C(=O)C2(CCN(C3(CC#N)CCC3)CC2)c2c1cnc1[nH]c(-c3cnn(CC(C)(C)O)c3)c(-c3ccc(OC(F)(F)F)cc3)c21 [Example 50, 2-(1-(2-(1-(2-Hydroxy-2-methylpropyl)-1H-pyrazol-4-yl)-6-methyl-7-oxo-1-(4-(trifluoromethoxy)phenyl)-6,7-dihydro-3H-spiro[dipyrrolo[2,3-b:3′,2′-d]pyridine-8,4′-piperidin]-1′-yl)cyclobutyl)acetonitrile, trifluoroacetate salt] | ≤ 0.1 | > 2.5 | > 2.5 | ≤ 0.1 |
| CN1C(=O)C2(CCN(C3(CC#N)CCC3)CC2)c2c1cnc1[nH]c(-c3cnn(CC(C)(C)O)c3)c(-c3ccc(C(F)(F)F)cc3)c21 [Example 52, 2-(1-(2-(1-(2-Hydroxy-2-methylpropyl)-1H-pyrazol-4-yl)-6-methyl-7-oxo-1-(4-(trifluoromethyl)phenyl)-6,7-dihydro-3H-spiro[dipyrrolo[2,3-b:3′,2′-d]pyridine-8,4′-piperidin]-1′-yl)cyclobutyl)acetonitrile, trifluoroacetate salt] | ≤ 0.1 | > 2.5 | > 2.5 | ≤ 0.1 |
| CCS(=O)(=O)N1CC2(C1)CC1(C2)C(=O)N(C)c2cnc3[nH]c(-c4cnn(C(C)C)c4)c(-c4ccc5c(cnn5C)c4)c3c21 [Example 54, 1-(Ethylsulfonyl)-2″-(1-isopropyl-1H-pyrazol-4-yl)-6″-methyl-1″-(1-methyl-1H-indazol-5-yl)-3″,6″-dihydro-7″H-dispiro[azetidine-3,1′-cyclobutane-3′,8″-dipyrrolo[2,3-b:3′,2′-d]pyridin]-7″-one, trifluoroacetate salt] | ≤ 0.1 | 0.5 to 1.25 | 0.5 to 1.25 | ≤ 0.1 |
| CN1C(=O)C2(Cc3ccccc3C2)c2c1cnc1[nH]c(-c3ccc(CN4CCC(S(C)(=O)=O)CC4)cc3)cc21 [Example 57, 6-Methyl-2-(4-((4-(methylsulfonyl)piperidin-1-yl)methyl)phenyl)-1′,3,3′,6-tetrahydro-7H-spiro[dipyrrolo[2,3-b:3′,2′-d]pyridine-8,2′-inden]-7-one] | > 2.5 | > 2.5 | > 2.5 | 1.25 to 2.5 |
| [2H]C([2H])([2H])n1ncc2cc(-c3c(-c4cnn(C)c4)[nH]c4ncc5c(c34)C3(CC4(CCN(C(=O)OC)CC4)C3)C(=O)N5C)ccc21 [Example 58, Methyl 6-methyl-2-(1-methyl-1H-pyrazol-4-yl)-1-(1-(methyl-d3)-1H-indazol-5-yl)-7-oxo-6,7-dihydro-3H-dispiro[dipyrrolo[2,3-b:3′,2′-d]pyridine-8,1′-cyclobutane-3′,4″-piperidine]-1″-carboxylate, trifluoroacetate salt] | ≤ 0.1 | 1.25 to 2.5 | 1.25 to 2.5 | ≤ 0.1 |
| CCCC(=O)N1CCC2(CC1)CC1(C2)C(=O)N(C)c2cnc3[nH]c(-c4cnn(C)c4)c(-c4ccc5c(cnn5C)c4)c3c21 [Example 59, 1″-Butyryl-6-methyl-1-(1-methyl-1H-indazol-5-yl)-2-(1-methyl-1H-pyrazol-4-yl)-3,6-dihydro-7H-dispiro[dipyrrolo[2,3-b:3′,2′-d]pyridine-8,1′-cyclobutane-3′,4″-piperidin]-7-one, trifluoroacetate salt] | ≤ 0.1 | 1.25 to 2.5 | 1.25 to 2.5 | ≤ 0.1 |
| CN(C)C(=O)N1CCC2(CC1)CC1(C2)C(=O)N(C)c2cnc3[nH]c(-c4cnn(C)c4)c(-c4ccc5c(cnn5C)c4)c3c21 [Example 60, N,N,6-Trimethyl-1-(1-methyl-1H-indazol-5-yl)-2-(1-methyl-1H-pyrazol-4-yl)-7-oxo-6,7-dihydro-3H-dispiro[dipyrrolo[2,3-b:3′,2′-d]pyridine-8,1′-cyclobutane-3′,4″-piperidine]-1″-carboxamide, trifluoroacetate salt] | ≤ 0.1 | 1.25 to 2.5 | 1.25 to 2.5 | ≤ 0.1 |
